According to patent US6887983B2, “Purified 20 kDA presenilin 2 C-terminal fragment and methods of screening for compounds that inhibit proteolysis of presenilin 2” (The General Hospital Corporation, priority 1997, dated 2005):
Where a SMILES comes first, the peptide text is derived from it. The star is where a group is joined. Cbz = O=C(OCc1ccccc1)*; CH2F = FC*

Experiments:
[1] = tested on: generation of alternative 14 kDa PS1-CTF; experiment: Generation of alternative 14 kDa PS1-CTF in inducible H4 cells overexpressing PS1; type: cell-based, human; details: PS1-overexpressing cell lines
Procedure: FIG. 11. […] Inducible PS1 cells were generated similar to as described herein. High-(clone 1.22) and low-(clone 1.24) expressing clones were grown in the presence or absence of tetracycline for 24 hours. As similar to those shown for PS2, multiple PS1 CTFs were detected in the PS 1-overproducing cells, including 23 kDa endogenous PS1 CTF (arrow e′), transgene-derived normal cleavage product (arrow f′), and aberrant 14 kDa PS1 fragment. (b, c, d) Cleavage of endogenous PS1 CTF during STS-induced apoptosis. Identical samples used for FIG. 8 were stained with αPS1 Loop. PS1 CTF was further cleaved into smaller 14 kDa fragment during apoptotic process. […] Asterisk indicates non-specific bands.
The point mutations in the potential aspartate cleavage sites of PS2 (D326A and D329A) and control aspartate (D308A) were introduced into a PS2 open reading frame by site-directed mutagenesis using Muta-Gene phagemid kit (BioRad). The inducible construct encoding the full-length PS1 with 3′ FLAG epitope sequence was generated as described for PS2 herein. […]
Next, whether PS1, a closely related homologue of PS2, also undergoes alternative cleavage when overexpressed and/or during apoptosis was tested. […] However, in the clonal cell line expressing lower levels of PS1 (clone IF24), full-length PS1 and the normal CTF were predominantly detected while the alternative 14 kDa CTF fragment was not detectable.

[2] = tested on: generation of the 20 kDa PS2-CTF; experiment: Generation of 20 kDa PS2-CTF in H4 cells overexpressing PS2, Western blot with αPS2Loop; details: FIG. 7d; for generation of the 20 kDa PS2-CTF: cells overexpressing PS2, induced 24 h, inhibitor added at induction
Procedure: Aberrant 20 kDa PS2 C-terminal fragment (CTF) in transfected cells. (a) Detection of the endogenous PS2 CTF in human brain. […] (b) Detection of multiple PS2 CTFs in the inducible H4 cells overexpressing C-terminal epitope-tagged PS2 by Western blotting using αPS2Loop. […] (c) Selective localization of the 20 kDa CTF in the non-ionic detergent-resistant cellular fraction. Wild-type PS2 cells were induced for 48 hours, fractionated into detergent-insoluble/resistant (lane 2) and detergent soluble (lane 3) fractions and wash (lane 4), and then analyzed by Western blotting with αPS2Loop. Total SDS lysates are shown in lane 1. […] The zFA-fmk (cathepsin B inhibitor) was used as a control for fluoromethylketone (fmk) group. […] Inducible PS2 were grown in the presence (Uninduced, left panel) or absence (Induced, right panel) of tetracycline for 24 hours, and inhibitors or solvent (DMSO) were added at the time of the induction.
(§2) For some experiments, protein quantitation, SDS-PAGE (4-20% or 16%) and Western blotting were carried out as described, supra, with the exception of using the lysis buffer (10 mM Tris-HCl [pH 7.4], 150 mM NaCl, 1% Triton X-100, 0.5% NP-40, 5 mM EDTA plus either 0.3% SDS or 1% Sarkosyl) with protease inhibitors, allowing for the efficient extraction of the 20 kDa C-terminal fragment from the detergent-resistant fractions.

[3] = tested on: endogenous PS2 cleavage in H4 human neuroglioma cells; experiment: Apoptotic cleavage of endogenous PS2 in untransfected H4 cells (staurosporine or etoposide), Western blot
Procedure: H4 human neuroglioma cells were treated with 1 μM STS for timed intervals indicated on the top panels and lysates were analyzed by Western blotting using αPS2Loop along with antibodies to poly(ADP-ribose) polymerase (PARP), CPP32, and HSP70. […] Cells were pre-treated with inhibitors for 1 hour, further incubated in the presence or absence of 2 μM STS (b) or 20 μM etoposide for 18 hours. and lysates were analyzed by Western blotting. […] (e) Dose-response curves of the effect of zVAD-fmk (Δ) and zDEVD-fmk (o) on STS-induced apoptotic cleavage of PS2. Relative amounts of 20 kDa PS2 fragments from the cells co-treated with 1 μM STS (18 hours) plus either zVAD-fmk or zDEVD-fmk were measured by the transmittance analysis of the Western blot as described (Bush, A. I., et al., Ann. Neurol. 32:57-65 (1992)). The amounts of 20 kDa fragment from the cells treated with STS alone were standardized as 100%. With the exception of (d) (4-20% gradient gel), all SDS-PAGE were performed using 16% gels.
as §2

[4] = tested on: endogenous PS1 cleavage; experiment: Apoptosis-associated cleavage of endogenous PS1 in H4 cells; type: cell-based, human; details: STS- or etoposide-induced, FIGS. 11c and 11d
Procedure: FIG. 11. […] Inducible PS1 cells were generated similar to as described herein. High-(clone 1.22) and low-(clone 1.24) expressing clones were grown in the presence or absence of tetracycline for 24 hours. […] Identical samples used for FIG. 8 were stained with αPS1 Loop. […] Asterisk indicates non-specific bands.
Whether endogenous PS1 is cleaved by CP32-like proteases following induction of apoptosis was also tested.

[5] = tested on: full-length 54 kDa PS2 cleavage; experiment: Cleavage of full-length PS2 during etoposide-induced apoptosis in inducible H4 cells (N-terminal FLAG PS2); type: cell-based, human; details: increasing concentrations of inhibitor, 20 μM etoposide; FIG. 8
Procedure: FIG. 8. Cleavage of full-length 54 kDa PS2 by a zVAD-sensitive protease activated during etoposide-induced apoptosis. Inducible H4 cells expressing PS2 containing N-terminal FLAG epitope were induced for 12 hours and further incubated with media containing 20 μM etoposide. Alternative (34 kDa NTF) and normal (f; 30 kDa) N-terminal cleavage products detected by anti-FLAG antibody and alternative (20K CTF) and endogenous plus normal C-terminal cleavage products (e/f) detected by αPS2Loop were indicated by arrows.
Thus, whether the alternative PS2-CTF was generated from full-length 54 kDa PS2 during apoptosis was tested. […] The alternative NTF was 34 kDa while the “normal” NTF, labeled as band f in the top panel of FIG. 8, was 30 kDa. The alternative PS2 cleavage fragments were first observed at 3 hours post-treatment with etoposide.

[6] = tested on: polyubiquitinated HMW-PS2; experiment: Nickel affinity chromatography of PS2 modified with His-tagged ubiquitin, anti-PS2Loop blot; type: cell-based, human; details: induced cells treated with ALLN
Procedure: (§1) FIG. 5. Polyubiquitination and proteasomal degradation of PS2. […] Detergent-soluble (Soluble) and detergent-resistant fractions (Insoluble) were prepared and analyzed by Western blotting. FIG. 5B) immunoprecipitation of ubiquitin-positive high molecular weight forms of PS2 (HMW-PS2) by anti-FLAG antibodies. […] FIG. SC) binding of PS2 modified with epitope-tagged ubiquitin (H6M-Ub) to nickel affinity columns. Plasmid pCW7 encoding wild-type (H6M-Ub) or pCW8 encoding dominant-negative ubiquitin (H6M-UbK48R) was transiently transfected into uninduced PS2 cells (clone WF2). […] Lysates were subjected to nickel affinity chromatography as described herein and bound materials were analyzed by Western blotting using anti-PS2Loop antibodies.
PS2 cells were transiently transfected with ubiquitin constructs either pCW7 (H6M-Ub) or pCW8 (H6M-UbK48R) using LipofectAMINE™ according to the manufacturer's instruction (LifeTtechnologies, Inc.). […] Samples were concentrated by freeze-drying, and PS2 immunoreactivity was detected by Western blotting using anti-PS2Loop antibodies.
To determine whether polyubiquitinated HMW-PS2 serves as a degradation intermediate for the full-length PS2, constructs encoding wild-type (H6M-Ub) and dominant-negative ubiquitin (H6M-UbK48R), tagged with poly((6X)-histidine) were transiently transfected into uninduced cells. […]

[7] = tested on: polyubiquitinated PS2; experiment: Immunoprecipitation of ubiquitin-positive HMW-PS2 with anti-FLAG, anti-ubiquitin immunoblot; type: cell-based, human; details: 50 μM ALLN; C-terminal FLAG PS2; FIG. 5B
Procedure: as §1
Protein samples were quantiated by the BCA protein assay kit (Pierce). SDS-PAGE was carried out using 4-20% gradient Tris-glycine gels under reducing conditions. Proteins were transferred to polyvinylidene difluoride membrane (Bio-Rad) using a semi-dry electrotransfer system (Hoefer). The blots were blocked with 5% non-fat dry milk in TBST (25 mM Tris (pH 7.6), 137 mM NaCl, 0.15% Tween 20) for 1.5 h, incbated primary antibodies (M2, 3 μg/ml; D-8, 1 to 1000; polyclonal anti-ubiquitin, 1 to 1000; Ubi-1, 1 to 1500) for 1.5 h, and secondary antibodies (horseradish perodixase-conjugated anti-mouse or rabbit antibodies, 1 to 5000) in TBST. […]

| Molecule | generation of alternative 14 kDa PS1-CTF [1] | generation of the 20 kDa PS2-CTF [2] | generation of the 20 kDa PS2-CTF ([2]; listed as zVAD) | levels of the endogenous 25 kDa CTF, the 26 kDa transgene-derived CTF, or other PS2 species ([2]; cells overexpressing PS2) | concentration equally effective in inhibiting apoptosis-induced cleavage of PS2 ([3]; 1 μM STS 18 h, relative amount of 20 kDa fragment, FIG. 9e) | normal processing of PS2 (generation of 25 kDa endogenous fragment) ([3]; H4 cells undergoing apoptosis) | STS-induced or etoposide-induced cleavage of PS2, PARP, and pro-CPP32 ([3]; H4 cells, 2 μM STS or 20 μM etoposide 18 h, FIG. 9b, c) | alternative cleavage of endogenous PS2 during staurosporine-induced or etoposide-induced apoptosis ([3]; H4 cells, inhibitor pre-treatment 1 h, 2 μM STS or 20 μM etoposide 18 h, FIGS. 9b-9d) | apoptosis-associated cleavage of endogenous PS1 [4] | apoptosis-associated cleavage of endogenous PS1 ([4]; listed as zVAD) | generation of both alternative PS2 cleavage products [5] | polyubiquitinated HMW-PS2 bound to nickel column ([6]; transfected with H6M-Ub, FIG. 5C lane 10) | polyubiquitinated HMW-PS2 bound to nickel column ([6]; transfected with dominant-negative H6M-UbK48R, FIG. 5C lane 12) | Ubiquitin-positive HMW-PS2 [7] |
| --- | --- | --- | --- | --- | --- | --- | --- | --- | --- | --- | --- | --- | --- | --- |
| COC(=O)C[C@H](NC(=O)[C@H](C)NC(=O)[C@@H](NC(=O)OCc1ccccc1)C(C)C)C(=O)CF [zVAD-fmk] (Cbz-Val-Ala-Asp(OMe)-CH2F) | blocked | blocked | blocked the generation of the 20 kDa PS2-CTF | no effect | 25 µM | no effect on normal processing of PS2 | Inhibition of STS-induced (b) or etoposide-induced (c) cleavage of PS2, PARP, and pro-CPP32 | specifically blocked | Inhibition of STS-induced (c) and etoposide-induced (d) PS1 cleavage | blocked | inhibited the generation of both alternative cleavage products | – | – | – |
| N-acetyl-L-leucinal-L-norleucinal [ALLN] | – | – | – | – | – | – | – | – | – | – | – | abundant amounts of polyubiquitinated HMW-PS2 | a small amount of polyubiquitinated HMW-PS2 | significantly increased |
